Experimental data taken from article PMC7082753, “Hazards of Using Masking Protocols When Performing Ligand Binding Assays: Lessons From the Sigma-1 and Sigma-2 Receptors” (Frontiers in Pharmacology, 2020).
Like-named read-outs stand apart in the source and are kept apart here.

What was measured:
sigma-1 receptor [1] = biological target: sigma-1 receptor; design: method as in Largent et al., 1987; conditions: ref Largent et al., 1987, cited from earlier work
sigma-2 receptor [2] = conditions: PC12 cells, ref Hellewell and Bowen, 1990, cited from earlier work
sigma-1 receptor [3] = assay: Saturation binding of [³H] (+) pentazocine to MCF7 cell membranes; design: species or system human
Procedure: MDA-MB-468 cells were maintained in DMEM, high glucose (41965-062) supplemented with 10% foetal calf serum. MCF7 cells were maintained in MEM (M2279) supplemented with 2 mM L-glutamine and 10% foetal calf serum. Cells were cultured at 37°C in a humidified incubator with 5% CO2. […] The supernatant was discarded and the pellet suspended in SBB.
Assays (total volume 100 µl) were performed using 0–300 nM [^3H] […] Non-specific binding was determined using 1 mM reduced haloperidol ([Schetz et al., 2007]). […] Assays were terminated by addition of ice-cold tris-buffered saline (TBS: 154 mM NaCl, 10 mM Tris, pH 7.4) and filtration through glass fibre filters (GF/B, Sigma-Aldrich, Poole, UK) using a cell harvester. Tubes and filter discs were washed (2 x 3 ml) with ice-cold TBS, and the filter discs dried under vacuum. Scintillation counting was carried out in ProSafe FC+ cocktail (Meridian Biotechnologies Ltd, Tadworth, UK) after overnight incubation.

sigma-1 receptor [4] = biological target: T1, sigma-1 receptor (Homo sapiens, UniProt Q99720); type: binding; conditions: MDA-MB-468; two-site analysis
T1 construct: sigma-1 receptors in membranes prepared from MDA-MB-468 cells; endogenous in cells; host or cells: MDA-MB-468 (ATCC HTB-132) cell membranes
T1 sequence (Q99720 whole entry): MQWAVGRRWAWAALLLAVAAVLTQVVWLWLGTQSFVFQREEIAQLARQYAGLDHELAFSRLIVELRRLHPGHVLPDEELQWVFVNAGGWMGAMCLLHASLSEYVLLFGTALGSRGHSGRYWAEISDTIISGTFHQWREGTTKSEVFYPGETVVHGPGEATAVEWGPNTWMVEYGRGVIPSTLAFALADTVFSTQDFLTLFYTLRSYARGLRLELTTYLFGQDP
Procedure: (§1) Competition binding assays (total volume 100 μl) were performed using a final assay concentration of 50 nM, 100 nM, or 1 µM [^3H] […] Alternatively, 10–30 nM [³H] […] The assay was then allowed to equilibrate at room temperature for 4 h. […] Tubes and filter discs were washed with ice-cold TBS (2 x 3 ml), and the filter discs dried under vacuum.

sigma-1 receptor [5] = conditions: not affected by GTP or suramin; ref Brimson et al., 2011; cited from earlier work
sigma sites = conditions: spinal cord; competition experiments; ref Kovacs and Larson, 1995; cited from earlier work
sigma-2 receptor [6] = biological target: T2, sigma-2 receptor (Homo sapiens, UniProt Q5BJF2); assay: Two-site competition of (+) pentazocine with [³H] DTG in MDA-MB-468 membranes, low-affinity site; type: binding; design: endogenous in cells; conditions: two-site analysis
T2 sequence (Q5BJF2 whole entry): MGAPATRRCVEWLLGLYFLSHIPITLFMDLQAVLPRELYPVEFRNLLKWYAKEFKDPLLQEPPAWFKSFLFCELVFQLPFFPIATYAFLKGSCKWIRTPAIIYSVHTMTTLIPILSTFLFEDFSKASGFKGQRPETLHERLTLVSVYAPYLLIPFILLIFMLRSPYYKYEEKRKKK
Procedure: as §1

sigma-2 receptor [7] = biological target: T2, sigma-2 receptor; assay: [³H] DTG saturation binding to MCF7 membranes in absence or presence of (+) pentazocine; design: from sigma-2 receptors in membranes prepared from MCF7 cells; endogenous in cells; host or cells: MCF7 (ATCC HTB-22) cell membranes
Procedure: (§2) Assays (total volume 100 μl) were performed at room temperature for 4 h with 1–300 nM [^3H] […] Assays were terminated by addition of ice-cold TBS and filtration through glass fibre filters (GF/C, Sigma-Aldrich, Poole, UK) using a cell harvester. Tubes and filter discs were washed with ice-cold TBS (2 x 3 ml) and the filter discs dried under vacuum. Scintillation counting was carried out in ProSafe FC+ cocktail after overnight incubation.

sigma receptors = assay: Saturation binding of pan-sigma ligand [³H] DTG to MDA-MB-468 cell membranes; design: species or system human; conditions: MDA-MB-468 membranes; n = 3
Procedure: as §2

[8] = system: residual binding sites for [³H] DTG in TMEM97 knock-out HeLa cells; conditions: cited from earlier work
sigma-2 receptor [9] = biological target: sigma-2 receptor; design: method as in Hou et al., 2006; Zeng et al., 2019; conditions: ref Hou et al., 2006; Zeng et al., 2019; cited from earlier work
sigma-1 receptor [10] = biological target: sigma-1 receptor; design: method as in Hou et al., 2006; Zeng et al., 2019; conditions: ref Hou et al., 2006; Zeng et al., 2019; cited from earlier work
sigma-1 receptor [11] = assay: Literature dextrallorphan competition against [³H] PPP (Largent et al.); type: binding; conditions: data of ref Largent et al., 1987
sigma-2 receptor [12] = assay: Literature [³H] DTG and [³H] PPP binding in PC12 cells and affinity estimated from it; design: species or system rat; conditions: for K30: 30 % displacement; for Ki: data of ref Hellewell and Bowen, 1990
Excerpt: Calculations for saturation binding are based on non-linear analysis of idealised data.

sigma-1 receptor [13] = conditions: ref Hellewell and Bowen, 1990; read-out: Ki (sigma-1 affinity); cited from earlier work

For `CCCN1CCCC(c2cccc(O)c2)C1` (single isomer, unassigned; (+)) [PPP, (+)-3-(3-hydroxyphenyl)-N-(1-propyl)piperidine], the Kd (sigma-1 receptor [1]; radioligand [³H] PPP) is given as 30 nM and the Kd (sigma-2 receptor [2]; PPP) is given as 86.3 nM.

In the case of `CC(C)=CCN1CC[C@]2(C)c3cc(O)ccc3C[C@H]1[C@H]2C` [(+) pentazocine, (1S,9S,13S)-1,13-dimethyl-10-(3-methylbut-2-en-1-yl)-10-azatricyclotrideca-2,4,6-trien-4-ol], the specific binding (sigma-1 receptor [3]) is given as “no specific binding”, the “% of sites with high affinity” value (sigma-1 receptor [4]) is given as 36% and the Hill slope (sigma-1 receptor [5]) is given as “unity”. For the same compound, the “[³H] DTG displaced with high affinity” value (sigma sites) was 30%, the “displacement of DTG and PPP binding” value (sigma-2 receptor [2]) was “low-affinity” and the “% of sites with low affinity” value (sigma-2 receptor [6]) was 64%. For the same compound, the “effect on Bmax of [³H] DTG” value (sigma-2 receptor [7]; 100 nM (+) pentazocine) was “did not affect” and the “effect on calculated Bmax of [³H] DTG” value (sigma-2 receptor [7]; 1 µM (+) pentazocine) was “did not affect”.

For `Cc1ccccc1NC(=N)Nc1ccccc1C` [DTG, 1,3-di-O-tolylguanidine], the pKd (sigma receptors) is given as 7.88 ± 0.01 and the Kd ([8]; presence of 1 μM (+) pentazocine, ref Riad et al., 2018, Zeng et al., 2019, read-out: apparent Kd) is given as 300 to 400 nM.

In the case of `COc1cc2c(cc1OC)CN(CCCCNC(=O)c1cc(I)cc(OC)c1OC)CC2` [RHM-4], the “detection of residual binding when used as radioligand” value ([8]; ref Zeng et al., 2019) is given as “unable to detect this residual binding”, the Ki (sigma-2 receptor [9]) is given as 8.2 nM and the Ki (sigma-1 receptor [10]) is given as 12900 nM.

`C=CCN1CC[C@@]23CCCC[C@@H]2[C@@H]1Cc1ccc(O)cc13` [dextrallorphan] gave a Ki (sigma-1 receptor [11]; Cheng-Prusoff correction of IC50 163 nM, read-out: Ki) of 153 to 158 nM, a Ki (sigma-1 receptor [11]; lowest calculated affinity, from Ki 153-158 nM, read-out: sigma-1 affinity used for modelling) of 155 nM and a K30 (sigma-2 receptor [12]; calculated using DTG (5 nM, Kd […])) of 18.76 µM. It also gave a K30 (sigma-2 receptor [12]; calculated using PPP (3 nM, Kd 86.3 nM)) of 6.55 µM, a Ki (sigma-2 receptor [12]; estimated from DTG data in PC12 cells) of 44700 nM and a Ki (sigma-2 receptor [12]; estimated from PPP data in PC12 cells) of 15000 nM. For the same compound, the Ki (sigma-1 receptor [13]) was 16.1 nM, the IC50 (sigma-1 receptor [1]; against 1-2 nM [³H] PPP) was 163 nM and the “displacement of [³H] DTG or [³H] PPP” value (sigma-2 receptor [2]; 5 μM dextrallorphan) was “less than 30%”.
